Read-outs that look alike come from different tables or passages of the source.
Columns and labels:
ACHN = test: In vitro 3D clonogenic assay; type: cell-based; settings: Homo sapiens, 3D model, colony formation, 8 to 13 days continuous exposure, read-out: Relative IC50
Procedure: (§1) Cell lines were routinely passaged one or twice weekly. All cells were grown at 37° C. in a humidified atmosphere with 5% CO2 in RPMI 1640 medium (Biochrom) supplemented with 10% (v/v) fetal calf serum and 0.1 mg/mL gentamicin. The percentage of viable cells was determined in a Neubauer-hemocytometer using trypan blue exclusion.
(§2) Tumor xenografts (patient-derived, as well as cell line-derived xenografts) were passaged as subcutaneous xenografts in NMRI nu/nu mice. At a tumor volume of 400-1,000 mm^3 tumor-bearing mice were sacrificed and tumors were collected under sterile conditions without delay according to the relevant Oncotest SOPs and the relevant animal welfare guidelines published by the FELASA and the GV-SOLAS. Tumors were mechanically disaggregated and subsequently incubated with an enzyme cocktail consisting of collagenase type IV (41 U/mL), DNase I (125 U/mL), hyaluronidase type III (100 U/mL), and dispase II (1.0 U/mL) in RPMI 1640 medium (Life Technologies) at 37° C. for 60-120 minutes. Cells were passed through sieves of 100 μm and 40 μm mesh size (Cell Strainer, BD Falcon™), and washed with RPMI 1640 medium. The percentage of viable cells was determined in a Neubauer-hemocytometer using trypan blue exclusion. Aliquots of the cells were frozen down, and stored in liquid nitrogen. On each day of an experiment, a frozen aliquot of tumor cells was thawed and used for preparation of assay plates.
(§3) The clonogenic assay was carried out in a 96 well plate format using ultra low attachment plates. For each test, cells were prepared as described above and assay plates were prepared as follows: each test well contained a layer of semi-solid medium with tumor cells (50 and a second layer of medium supernatant with or without test compound (100 The cell layer consisted of 2.5·10^3 to 1·10^4 tumor cells per well, which were seeded in 50 μL/well cell culture medium (IMDM, supplemented with 20% (v/v) fetal calf serum, 0.01% (w/v) gentamicin, and 0.4% (w/v) agar). After 24 hours the test compounds were added after serial dilution in cell culture medium, and left on the cells for the duration of the experiment (continuous exposure, 100 μl drug overlay). Every plate included six untreated control wells and drug-treated groups in duplicate at 9 concentrations. Cultures were incubated at 37° C. and 7.5% CO2 in a humidified atmosphere for 8 to 13 days and monitored closely for colony growth using an inverted microscope. Within this period, ex vivo tumor growth led to the formation of colonies with a diameter of >50 μm. At the time of maximum colony formation, counts were performed with an automatic image analysis system (CellInsight NXT, Thermo Scientific). 48 hours prior to evaluation, vital colonies were stained with a sterile aqueous solution of 2-(4-iodophenyl)-3-(4-nitrophenyl)-5-phenyltetrazolium chloride (1 mg/ml, 100 μl/well).

Caki-1 = test: In vitro 3D clonogenic assay; type: cell-based; settings: Homo sapiens, 3D model, colony formation, 8 to 13 days continuous exposure
Procedure: as §1, §2, §3

RXF 1183L = test: In vitro 3D clonogenic assay; type: cell-based; settings: Homo sapiens, 3D model, colony formation, 8 to 13 days continuous exposure
Procedure: as §1, §2, §3

RXF 1220L = test: In vitro 3D clonogenic assay; type: cell-based; settings: Homo sapiens, 3D model, colony formation, 8 to 13 days continuous exposure
Procedure: as §1, §2, §3

RXF 1781L = test: In vitro 3D clonogenic assay; type: cell-based; settings: Homo sapiens, 3D model, colony formation, 8 to 13 days continuous exposure
Procedure: as §1, §2, §3

RXF 393L = test: In vitro 3D clonogenic assay; type: cell-based; settings: Homo sapiens, 3D model, colony formation, 8 to 13 days continuous exposure
Procedure: as §1, §2, §3

RXF 486L = test: In vitro 3D clonogenic assay; type: cell-based; settings: Homo sapiens, 3D model, colony formation, 8 to 13 days continuous exposure
Procedure: as §1, §2, §3

SN12C = test: In vitro 3D clonogenic assay; type: cell-based; settings: Homo sapiens, 3D model, colony formation, 8 to 13 days continuous exposure
Procedure: as §1, §2, §3

[1] = system: human tumor cell models for RCC; test: In vitro 3D clonogenic assay, all tumor models; type: cell-based; settings: 3D model, geometric mean over 10 tumor models
Procedure: as §1
as §2, with “Cells were passed through sieves of 100 μm and 40 μm mesh size (Cell Strainer, BD Falcon™), and washed with RPMI 1640 medium.” left out, “Aliquots of the cells were frozen down, and stored in liquid nitrogen. On each day of an experiment, a frozen aliquot of tumor cells was thawed and used for preparation of assay plates.” left out
The clonogenic assay was carried out in a 96 well plate format using ultra low attachment plates. […] Cultures were incubated at 37° C. and 7.5% CO2 in a humidified atmosphere for 8 to 13 days and monitored closely for colony growth using an inverted microscope. […]

A498 cells = test: In vivo animal efficacy study, subcutaneous tumor fragment xenograft; set-up: species or system female athymic nude mice; settings: sunitinib 20 mg/kg, bezafibrate 150 mg/kg, p.o. q.d. × 21
Procedure: Healthy 10 female athymic nude mice were recruited for the donor cell inoculation. Animals were subcutaneously injected at flank region with 10 million A498 cells suspended in 200 μl of media and matrigel. Animals were monitored for solid tumor growth. […] Tumors were fragmented in to ˜30 mg size. […] [table] The tumor sizes were measured weekly twice from the date of tumor appearance till the end of the experiment. Tumor size was measured by digital vernier caliper (MITUTOYO) by measuring length (L=longest axis) and width (W=shortest axis). Tumor Volume (V) was calculated using formula: […] Mean tumor volume and % tumor growth inhibition (% TGI) were then calculated (SEM=standard error of mean).

[2] = background statement; cited from earlier work
[3] = background statement; cited from earlier work; remark: listed apart in the source

With CC(C)(Oc1ccc(CCNC(=O)c2ccc(Cl)cc2)cc1)C(=O)O [Bezafibrate] the IC50 (ACHN) was 1060 µM, the IC50 (Caki-1; read-out: Absolute IC50) was 1290 µM and the IC50 (Caki-1; read-out: Relative IC50) was 1290 µM. It also gave an IC50 (RXF 1183L; read-out: Absolute IC50) of 609 µM, an IC50 (RXF 1183L; read-out: Relative IC50) of 712 µM and an IC50 (RXF 1220L; read-out: Absolute IC50) of 1160 µM. For the same compound, the IC50 (RXF 1220L; read-out: Relative IC50) was 1230 µM, the IC50 (RXF 1781L; read-out: Absolute IC50) was 1030 µM and the IC50 (RXF 1781L; read-out: Relative IC50) was 1100 µM. The IC50 (RXF 393L; read-out: Absolute IC50) was 1270 µM, the IC50 (RXF 393L; read-out: Relative IC50) was 1280 µM and the IC50 (RXF 486L; read-out: Absolute IC50) was 993 µM. For the same compound, the IC50 (RXF 486L; read-out: Relative IC50) was 962 µM, the IC50 (SN12C; read-out: Absolute IC50) was 463 µM and the IC50 (SN12C; read-out: Relative IC50) was 463 µM. The IC50 ([1]; read-out: Geometric mean absolute IC50) was 945 µM, the IC50 ([1]; read-out: Geometric mean relative IC50) was 985 µM and the “Tumor Growth Inhibition” value (A498 cells; Day 1) was 0.44%. The “Tumor Volume, Mean” value (A498 cells; Day 1) was 146.92 mm^3, the “Tumor Volume, Mean” value (A498 cells; Day 6) was 198.50 mm^3 and the “Tumor Growth Inhibition” value (A498 cells; Day 9) was 21.70%. For the same compound, the “Tumor Volume, Mean” value (A498 cells; Day 9) was 363.14 mm^3, the “Tumor Growth Inhibition” value (A498 cells; Day 13) was 24.92% and the “Tumor Volume, Mean” value (A498 cells; Day 13) was 463.30 mm^3. The “Tumor Growth Inhibition” value (A498 cells; Day 16) was 26.18%, the “Tumor Volume, Mean” value (A498 cells; Day 16) was 709.65 mm^3 and the “Tumor Growth Inhibition” value (A498 cells; Day 20) was 31.59%. For the same compound, the “Tumor Volume, Mean” value (A498 cells; Day 20) was 875.99 mm^3, the “Anti-tumor efficacy / effect in inhibiting tumor growth (in words)” value (A498 cells) was “shows anti-tumor efficacy” and the “Reduction of low-density lipoprotein cholesterol (LDL-C)” value [2] was 15-20%. For the same compound, the Reduction of triglycerides [2] was 30-50% and the “Absorption following oral administration” value [3] was “well absorbed”.

Reference: patent US10857113B2, “Bezafibrate for the treatment of cancer” (Cipla Limited, priority 2016, dated 2020)
